From ChEMBL document CHEMBL5143591, “Human Neuraminidases: Structures and Stereoselective Inhibitors” (J Med Chem, 2022)

Key:
Sialidase-3 = molecular target: T1, Sialidase-3 (Homo sapiens, UniProt Q9UQ49); test: Inhibition of human NEU3
T1 sequence (Q9UQ49 whole entry): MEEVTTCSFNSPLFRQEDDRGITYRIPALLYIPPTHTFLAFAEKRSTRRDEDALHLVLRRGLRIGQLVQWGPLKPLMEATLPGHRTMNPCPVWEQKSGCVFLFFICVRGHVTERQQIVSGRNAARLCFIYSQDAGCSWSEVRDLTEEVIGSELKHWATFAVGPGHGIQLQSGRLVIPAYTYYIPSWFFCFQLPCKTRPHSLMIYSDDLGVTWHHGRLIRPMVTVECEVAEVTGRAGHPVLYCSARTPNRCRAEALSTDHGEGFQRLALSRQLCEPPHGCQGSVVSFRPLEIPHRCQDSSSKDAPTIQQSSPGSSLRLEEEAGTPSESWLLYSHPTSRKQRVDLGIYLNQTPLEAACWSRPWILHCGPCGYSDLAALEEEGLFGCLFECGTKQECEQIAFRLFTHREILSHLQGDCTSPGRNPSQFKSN

Sialidase-1 = Sialidase-1 (Homo sapiens, UniProt Q99519); test: Inhibition of human NEU1
Sialidase-4 = molecular target: T2, Sialidase-4 (Homo sapiens, UniProt Q8WWR8); test: Inhibition of human NEU4
T2 sequence (Q8WWR8 whole entry): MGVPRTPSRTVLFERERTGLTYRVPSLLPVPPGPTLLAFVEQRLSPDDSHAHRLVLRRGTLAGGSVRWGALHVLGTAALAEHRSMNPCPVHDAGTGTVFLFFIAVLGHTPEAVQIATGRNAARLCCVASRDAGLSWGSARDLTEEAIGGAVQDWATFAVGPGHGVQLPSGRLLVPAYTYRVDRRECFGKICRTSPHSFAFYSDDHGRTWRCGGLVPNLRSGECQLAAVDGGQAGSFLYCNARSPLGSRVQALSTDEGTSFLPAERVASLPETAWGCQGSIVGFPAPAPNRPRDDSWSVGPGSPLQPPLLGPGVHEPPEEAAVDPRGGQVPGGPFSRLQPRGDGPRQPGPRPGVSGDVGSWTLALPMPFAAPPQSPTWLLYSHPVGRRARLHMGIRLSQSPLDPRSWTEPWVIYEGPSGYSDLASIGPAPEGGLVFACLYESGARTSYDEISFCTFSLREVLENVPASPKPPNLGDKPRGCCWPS

Measured: IC50

CC(=O)N[C@H]1[C@H]([C@H](O)[C@H](O)CO)O[C@](O)(C(=O)O)C[C@@H]1O
> 500 µM: all assays above
